Data: patent US9006173B2, “Microcystins as agents for treatment of cancer” (priority 2006, dated 2015)
Like-named read-outs stand apart in the source and are kept apart here. Numbered stars: 1 amine (or outer) side, 2 acyl side, 3 side chain; on linkers, the order of the positions; unused ones are H or OH. Bridge positions count the residues as written; N and C are the ends. Square brackets hold non-standard residues; d marks the D form. Peptide text beside a SMILES is read from it. Adda = CO[C@@H](Cc1ccccc1)[C@@H](C)/C=C(C)/C=C/[C@H](N[*:1])[C@H](C)C(=O)[*:2]; dAsp(3S-Me) = C[C@H](C(=O)[*:3])[C@@H](N[*:1])C(=O)[*:2]; d(γGlu) = O=C(O)[C@@H](CCC(=O)[*:2])N[*:1]; NMeDha = C=C(NC)C(=O)O

Key:
[1] = system: pIRESneo2 (control plasmid) transfected HeLa cells; assay: cells; format: cell-based
[2] = system: total phosphatase activity in OATP1B3-transfected HeLa cells; format: cell-based
[3] = system: OATP1B3-transfected HeLa cells
[4] = system: HeLa cells transfected with pIRESneo2; format: cell-based
[5] = system: total phosphatase activity in OATP1B1-transfected HeLa cells; format: cell-based
[6] = system: OATP1B1 transfected HeLa cells; format: cell-based
[7] = system: pIRESneo2 transfected HeLa cells; format: cell-based
[8] = system: OATP1B1-expressing HeLa xenografts; parameters: species or system athymic nude mice; settings: mouse, in vivo, ip
[9] = parameters: species or system athymic nude mice; settings: mouse, in vivo, ip
[10] = system: OATP1B1-transfected HeLa cells
[11] = mouse, in vivo; cited from earlier work
PP1 = PP1 (Homo sapiens, UniProt P62136); settings: read-out: Reported Ki PP1; cited from earlier work
PP2A = PP2A (Homo sapiens, UniProt P67775); settings: cited from earlier work
purified PP1 = purified PP1 (Oryctolagus cuniculus, UniProt P62139); assay: biochemical
purified PP2A = target: T1, purified PP2A (Homo sapiens, UniProt P67775); assay: biochemical; settings: [33P]-MyBP substrate, 10 min pre-incubation, mean±SD; read-out: Enzyme Inhibition PP2A IC50
T1 construct: purchased Upstate Cell Signaling Solutions, NY

OATP1B1 = assay: in vitro; settings: human
OATP1B3 = assay: in vitro; settings: human
[12] = read-out: Growth Inhibition pIRESneo2 IC50
[13] = read-out: Growth Inhibition OATP1B3 IC50
[14] = read-out: Growth inhibition: toxicity not reached / no cytotoxicity up to stated concentration in control cells
[15] = read-out: Growth Inhibition OATP1B1 IC50

Chain of PP2A (P67775 whole entry): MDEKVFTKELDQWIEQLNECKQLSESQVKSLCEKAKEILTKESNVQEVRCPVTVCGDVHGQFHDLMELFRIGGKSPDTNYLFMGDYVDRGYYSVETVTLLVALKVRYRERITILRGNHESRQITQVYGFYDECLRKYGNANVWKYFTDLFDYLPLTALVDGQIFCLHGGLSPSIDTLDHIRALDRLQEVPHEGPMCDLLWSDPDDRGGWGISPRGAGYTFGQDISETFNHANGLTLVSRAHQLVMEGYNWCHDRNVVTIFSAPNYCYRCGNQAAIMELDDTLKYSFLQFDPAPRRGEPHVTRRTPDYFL
T1 sequence (P67775 whole entry): as above
T1 sequence (P30153 2-589, further chain): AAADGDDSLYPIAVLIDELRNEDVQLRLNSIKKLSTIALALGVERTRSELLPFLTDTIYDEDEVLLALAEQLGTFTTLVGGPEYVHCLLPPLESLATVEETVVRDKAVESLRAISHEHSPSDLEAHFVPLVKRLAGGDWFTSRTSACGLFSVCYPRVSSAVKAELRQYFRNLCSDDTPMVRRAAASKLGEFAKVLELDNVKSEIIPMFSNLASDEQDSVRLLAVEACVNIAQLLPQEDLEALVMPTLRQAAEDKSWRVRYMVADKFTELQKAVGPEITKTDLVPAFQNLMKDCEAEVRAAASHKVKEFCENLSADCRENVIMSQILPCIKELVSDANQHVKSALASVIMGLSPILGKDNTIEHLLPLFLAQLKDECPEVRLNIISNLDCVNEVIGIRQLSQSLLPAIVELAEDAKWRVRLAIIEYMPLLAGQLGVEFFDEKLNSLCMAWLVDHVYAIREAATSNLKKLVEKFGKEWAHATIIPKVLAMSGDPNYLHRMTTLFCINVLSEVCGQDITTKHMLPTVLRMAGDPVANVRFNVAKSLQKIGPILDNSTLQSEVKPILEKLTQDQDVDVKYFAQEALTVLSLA
Chain of purified PP1 (P62139 whole entry): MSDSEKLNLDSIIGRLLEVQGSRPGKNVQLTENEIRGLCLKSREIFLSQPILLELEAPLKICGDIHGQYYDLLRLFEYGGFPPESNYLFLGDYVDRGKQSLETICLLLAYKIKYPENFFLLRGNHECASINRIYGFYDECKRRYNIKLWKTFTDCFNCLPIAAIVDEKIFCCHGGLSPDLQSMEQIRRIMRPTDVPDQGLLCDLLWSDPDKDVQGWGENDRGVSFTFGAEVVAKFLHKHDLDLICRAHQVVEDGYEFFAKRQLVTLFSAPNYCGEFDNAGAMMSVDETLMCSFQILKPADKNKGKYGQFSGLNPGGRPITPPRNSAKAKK
Chain of PP1 (P62136 whole entry): as the sequence (P62139 whole entry) above

Structure (SMILES): C=C1C(=O)N[C@H](C)C(=O)N[C@@H](CC(C)C)C(=O)N[C@@H](C(=O)O)[C@H](C)C(=O)N[C@@H](Cc2ccccc2)C(=O)N[C@@H](/C=C/C(C)=C/[C@H](C)[C@H](Cc2ccccc2)OC)[C@H](C)C(=O)N[C@@H](C(=O)O)CCC(=O)N1C [Microcystin LF, microcystin LF] (F[Adda][d(γGlu)][NMeDha][dA]L[dAsp(3S-Me)]-OH; lactam N-7)
- IC50 [1, 12]: > 1000 nM
- Effect on total phosphatase activity [2]: no discernable effect
- IC50 [3, 13]: 0.9 ± 0.9 nM

Structure (SMILES): C=C1C(=O)N[C@H](C)C(=O)N[C@@H](CC(C)C)C(=O)N[C@@H](C(=O)O)[C@H](C)C(=O)N[C@@H](CCCNC(=N)N)C(=O)N[C@@H](/C=C/C(C)=C/[C@H](C)[C@H](Cc2ccccc2)OC)[C@H](C)C(=O)N[C@@H](C(=O)O)CCC(=O)N1C [Microcystin LR, microcystin LR] (R[Adda][d(γGlu)][NMeDha][dA]L[dAsp(3S-Me)]-OH; lactam N-7)
- IC50 [1, 12]: > 10000 nM
- IC50 [1, 14]: > 10000 nM
- Clonogenic assay toxicity in vector alone cells [4]: no toxicity
- Decrease of total phosphatase activity [5]: approximately 30%
- Cell and nuclear morphology changes [6]: membrane blebbing
- Cell and nuclear morphology changes [7]: no changes in cellular morphology
- Average tumor volume, % of control [8]: 49 % of control
- Body weight day 0, daily cohort [9]: 22.8±2.7 grams
- Body weight day 0, every other day cohort [9]: 21.6±0.8 grams
- Body weight day 18, daily cohort [9]: 19.0±1.2 grams
- Body weight day 18, every other day cohort [9]: 22.3±2.4 grams
- Growth inhibition activity after 1 hour exposure [10]: less active
- IC50 [10, 15]: 5 nM
- IC50 ([10]; read-out: Growth inhibition IC50 in presence of BSP, OATP1B1): ~5000 nM
- IC50 [3, 13]: 39 nM
- IC50 ([3]; read-out: Growth inhibition IC50 in presence of BSP, OATP1B3): ~5000 nM
- Share of total dose accumulating in the liver [11]: 70%
- Ki (PP1): 0.06 to 6 nM
- Ki (PP2A; read-out: Reported Ki PP2A): 0.01 to 2 nM

Structure (SMILES): C=C1C(=O)N[C@H](C)C(=O)N[C@@H](CC(C)C)C(=O)N[C@@H](C(=O)O)[C@H](C)C(=O)N[C@@H](Cc2c[nH]c3ccccc23)C(=O)N[C@@H](/C=C/C(C)=C/[C@H](C)[C@H](Cc2ccccc2)OC)[C@H](C)C(=O)N[C@@H](C(=O)O)CCC(=O)N1C [Microcystin LW, microcystin LW] (W[Adda][d(γGlu)][NMeDha][dA]L[dAsp(3S-Me)]-OH; lactam N-7)
- IC50 [1, 12]: > 1000 nM
- Effect on total phosphatase activity [2]: no discernable effect
- IC50 [3, 13]: 0.5 ± 0.4 nM

Structure (SMILES): C=C1C(=O)N[C@H](C)C(=O)N[C@@H](CCCNC(=N)N)C(=O)N[C@@H](C(=O)O)[C@H](C)C(=O)N[C@@H](CCCNC(=N)N)C(=O)N[C@@H](/C=C/C(C)=C/[C@H](C)[C@H](Cc2ccccc2)OC)[C@H](C)C(=O)N[C@@H](C(=O)O)CCC(=O)N1C [Microcystin RR, microcystin RR] (R[Adda][d(γGlu)][NMeDha][dA]R[dAsp(3S-Me)]-OH; lactam N-7)
- IC50 [1, 12]: > 10000 nM
- IC50 [1, 14]: > 10000 nM
- Decrease of total phosphatase activity [2]: 90%
- IC50 ([10]; read-out: Growth inhibition IC50 OATP1B1): 3800 ± 2300 nM
- IC50 ([3]; read-out: Growth inhibition IC50 OATP1B3): 580 ± 400 nM

Structure (SMILES): C=C1C(=O)N[C@H](C)C(=O)N[C@@H](Cc2ccc(O)cc2)C(=O)N[C@@H](C(=O)O)[C@H](C)C(=O)N[C@@H](CCCNC(=N)N)C(=O)N[C@@H](/C=C/C(C)=C/[C@H](C)[C@H](Cc2ccccc2)OC)[C@H](C)C(=O)N[C@@H](C(=O)O)CCC(=O)N1C [Microcystin YR, microcystin YR] (R[Adda][d(γGlu)][NMeDha][dA]Y[dAsp(3S-Me)]-OH; lactam N-7)
- IC50 [1, 12]: > 1000 nM
- IC50 [10, 15]: 90 ± 20 nM
- IC50 [3, 13]: 45 ± 30 nM

Structure (SMILES): C=C1[C@@H](O)[C@@H]2O[C@]3(CC[C@H](/C=C/[C@@H](C)[C@@H]4CC(C)=C[C@@]5(O[C@H](C[C@@](C)(O)C(=O)O)CC[C@H]5O)O4)O3)CC[C@H]2O[C@@H]1[C@@H](O)C[C@H](C)[C@H]1O[C@@]2(CCCCO2)CC[C@H]1C [Okadaic acid]
- IC50 ([1]; Homo sapiens, HeLa, 72 h exposure, SRB dye assay, mean±SD, read-out: Growth Inhibition pIRESneo2 IC50): 7.8 ± 1.5 nM
- IC50 (purified PP1): 90 ± 17 nM
- IC50 (purified PP2A): 0.4 ± 0.18 nM
- IC50 (PP2A; literature (18), read-out: Reported IC50 PP2A): 15 to 70 nM
- IC50 (OATP1B1): 2.2 ± 0.6 nM
- IC50 (OATP1B3): 3 ± 1.2 nM
